# Patent US20220162167A1, “SUBSTITUTED BICYCLIC AND TETRACYCLIC QUINONES AND USE THEREOF AS ANTI-CANCER AGENTS” (THE REGENTS OF THE UNIVERSITY OF MICHIGAN, priority 2019, published 2022)
# Assays:
# Format in all cases: cell-based
# SNB-75 = assay: NCI60 growth inhibition, SNB-75; conditions: CNS Cancer; note: test concentration or dose not given here
# Experimental: (§1) Representative compounds were tested in 60 cell lines (NCI60) at the National Cancer Institute, Developmental Therapeutics Program.
# (§2) Representative compounds were tested in a panel of 60 cancer cells (NCI 60) at the National Cancer Institute. Growth inhibition are shown in table 2, table 3, table 4, table 5, and FIG. 1, FIG. 2, FIG. 3, FIG. 4, FIG. 5.
# MALME-3M = assay: NCI60 growth inhibition, MALME-3M; conditions: Melanoma
# Experimental: as §1, §2
# SK-MEL-28 = assay: NCI60 growth inhibition, SK-MEL-28; conditions: Melanoma
# Experimental: as §1, §2
# SF-295 = assay: NCI60 growth inhibition, SF-295; conditions: CNS Cancer; note: test concentration or dose not given here
# Experimental: as §1, §2
# SR = assay: NCI60 growth inhibition, SR; conditions: Leukemia
# Experimental: as §1, §2
# NCI-H522 = assay: NCI60 growth inhibition, NCI-H522; conditions: Non-Small Cell Lung Cancer
# Experimental: as §1, §2
# SK-MEL-2 = assay: NCI60 growth inhibition, SK-MEL-2; conditions: Melanoma; note: test concentration or dose not given here
# Experimental: as §1, §2
# HS 578T = assay: NCI60 growth inhibition, HS 578T; conditions: Breast Cancer
# Experimental: as §1, §2
# OVCAR-4 = assay: NCI60 growth inhibition, OVCAR-4; conditions: Ovarian Cancer; note: test concentration or dose not given here
# Experimental: as §1, §2
# UACC-257 = assay: NCI60 growth inhibition, UACC-257; conditions: Melanoma; note: test concentration or dose not given here
# Experimental: as §1, §2
# ACHN = assay: NCI60 growth inhibition, ACHN; conditions: Renal Cancer
# Experimental: as §1, §2
# HOP-92 = assay: NCI60 growth inhibition, HOP-92; conditions: Non-Small Cell Lung Cancer
# Experimental: as §1, §2
# A498 = assay: NCI60 growth inhibition, A498; conditions: Renal Cancer; note: test concentration or dose not given here
# Experimental: as §1, §2
# U251 = assay: NCI60 growth inhibition, U251; conditions: CNS Cancer
# Experimental: as §1, §2
# A549/ATCC = assay: NCI60 growth inhibition, A549/ATCC; conditions: Non-Small Cell Lung Cancer
# Experimental: as §1, §2
# SK-MEL-5 = assay: NCI60 growth inhibition, SK-MEL-5; conditions: Melanoma
# Experimental: as §1, §2
# TK-10 = assay: NCI60 growth inhibition, TK-10; conditions: Renal Cancer
# Experimental: as §1, §2
# CCRF-CEM = assay: NCI60 growth inhibition, CCRF-CEM; conditions: Leukemia
# Experimental: as §1, §2
# IGROV1 = assay: NCI60 growth inhibition, IGROV1; conditions: Ovarian Cancer
# Experimental: as §1, §2
# HT29 = assay: NCI60 growth inhibition, HT29; conditions: Colon Cancer
# Experimental: as §1, §2
# MDA-MB-468 = assay: NCI60 growth inhibition, MDA-MB-468; conditions: Breast Cancer; note: test concentration or dose not given here
# Experimental: as §1, §2
# SN12C = assay: NCI60 growth inhibition, SN12C; conditions: Renal Cancer
# Experimental: as §1, §2
# HCT-116 = assay: NCI60 growth inhibition, HCT-116; conditions: Colon Cancer
# Experimental: as §1, §2
# PC-3 = assay: NCI60 growth inhibition, PC-3; conditions: Prostate Cancer
# Experimental: as §1, §2
# OVCAR-3 = assay: NCI60 growth inhibition, OVCAR-3; conditions: Ovarian Cancer
# Experimental: as §1, §2
# EKVX = assay: NCI60 growth inhibition, EKVX; conditions: Non-Small Cell Lung Cancer
# Experimental: as §1, §2
# M14 = assay: NCI60 growth inhibition, M14; conditions: Melanoma
# Experimental: as §1, §2
# NCI-H23 = assay: NCI60 growth inhibition, NCI-H23; conditions: Non-Small Cell Lung Cancer
# Experimental: as §1, §2
# NCI-H460 = assay: NCI60 growth inhibition, NCI-H460; conditions: Non-Small Cell Lung Cancer
# Experimental: as §1, §2
# MCF7 = assay: NCI60 growth inhibition, MCF7; conditions: Breast Cancer
# Experimental: as §1, §2
# OVCAR-5 = assay: NCI60 growth inhibition, OVCAR-5; conditions: Ovarian Cancer
# Experimental: as §1, §2
# COLO 205 = assay: NCI60 growth inhibition, COLO 205; conditions: Colon Cancer
# Experimental: as §1, §2
# RPMI-8226 = assay: NCI60 growth inhibition, RPMI-8226; conditions: Leukemia
# Experimental: as §1, §2
# HCC-2998 = assay: NCI60 growth inhibition, HCC-2998; conditions: Colon Cancer
# Experimental: as §1, §2
# SW-620 = assay: NCI60 growth inhibition, SW-620; conditions: Colon Cancer; note: test concentration or dose not given here
# Experimental: as §1, §2
# NCI/ADR-RES = assay: NCI60 growth inhibition, NCI/ADR-RES; conditions: Ovarian Cancer
# Experimental: as §1, §2
# SF-268 = assay: NCI60 growth inhibition, SF-268; conditions: CNS Cancer; note: test concentration or dose not given here
# Experimental: as §1, §2
# SF-539 = assay: NCI60 growth inhibition, SF-539; conditions: CNS Cancer
# Experimental: as §1, §2
# NCI-H322M = assay: NCI60 growth inhibition, NCI-H322M; conditions: Non-Small Cell Lung Cancer
# Experimental: as §1, §2
# LOX IMVI = assay: NCI60 growth inhibition, LOX IMVI; conditions: Melanoma
# Experimental: as §1, §2
# CAKI-1 = assay: NCI60 growth inhibition, CAKI-1; conditions: Renal Cancer; note: test concentration or dose not given here
# Experimental: as §1, §2
# KM12 = assay: NCI60 growth inhibition, KM12; conditions: Colon Cancer; note: test concentration or dose not given here
# Experimental: as §1, §2
# MDA-MB-231/ATCC = assay: NCI60 growth inhibition, MDA-MB-231/ATCC; conditions: Breast Cancer
# Experimental: as §1, §2
# K-562 = assay: NCI60 growth inhibition, K-562; conditions: Leukemia
# Experimental: as §1, §2
# UACC-62 = assay: NCI60 growth inhibition, UACC-62; conditions: Melanoma; note: test concentration or dose not given here
# Experimental: as §1, §2
# HCT-15 = assay: NCI60 growth inhibition, HCT-15; conditions: Colon Cancer; note: test concentration or dose not given here
# Experimental: as §1, §2
# HL-60(TB) = assay: NCI60 growth inhibition, HL-60(TB); conditions: Leukemia
# Experimental: as §1, §2
# MOLT-4 = assay: NCI60 growth inhibition, MOLT-4; conditions: Leukemia
# Experimental: as §1, §2
# UO-31 = assay: NCI60 growth inhibition, UO-31; conditions: Renal Cancer
# Experimental: as §1, §2
# NCI-H226 = assay: NCI60 growth inhibition, NCI-H226; conditions: Non-Small Cell Lung Cancer; note: test concentration or dose not given here
# Experimental: as §1, §2
# SK-OV-3 = assay: NCI60 growth inhibition, SK-OV-3; conditions: Ovarian Cancer
# Experimental: as §1, §2
# 786-0 = assay: NCI60 growth inhibition, 786-0; conditions: Renal Cancer
# Experimental: as §1, §2
# HOP-62 = assay: NCI60 growth inhibition, HOP-62; conditions: Non-Small Cell Lung Cancer; note: test concentration or dose not given here
# Experimental: as §1, §2
# DU-145 = assay: NCI60 growth inhibition, DU-145; conditions: Prostate Cancer
# Experimental: as §1, §2
# T-47D = assay: NCI60 growth inhibition, T-47D; conditions: Breast Cancer
# Experimental: as §1, §2
# SNB-19 = assay: NCI60 growth inhibition, SNB-19; conditions: CNS Cancer; note: test concentration or dose not given here
# Experimental: as §1, §2
# RXF 393 = assay: NCI60 growth inhibition, RXF 393; conditions: Renal Cancer
# Experimental: as §1, §2
# MDA-MB-435 = assay: NCI60 growth inhibition, MDA-MB-435; conditions: Melanoma
# Experimental: as §1, §2
compound,measurement,setting,value
"Cc1ccc2c(n1)C(=O)C(Cl)=C(Nc1ccc(N3CCN(C)CC3)cc1)C2=O [Compound 13, 7-chloro-2-methyl-6-((4-(4-methylpiperazin-1-yl)phenyl)amino)quinoline-5,8-dione]",Growth inhibition (% control) GIPRCNT,SNB-75,−53.8363 % control
same,Growth inhibition (% control) GIPRCNT,MALME-3M,−75.4481 % control
same,Growth inhibition (% control) GIPRCNT,SK-MEL-28,30.32 % control
same,Growth inhibition (% control) GIPRCNT,SF-295,99.36 % control
same,Growth inhibition (% control) GIPRCNT,SR,−5.054 % control
same,Growth inhibition (% control) GIPRCNT,NCI-H522,−63.7561 % control
same,Growth inhibition (% control) GIPRCNT,SK-MEL-2,68.36 % control
same,Growth inhibition (% control) GIPRCNT,HS 578T,58 % control
same,Growth inhibition (% control) GIPRCNT,OVCAR-4,−100 % control
same,Growth inhibition (% control) GIPRCNT,UACC-257,57.23 % control
same,Growth inhibition (% control) GIPRCNT,ACHN,−93.75 % control
same,Growth inhibition (% control) GIPRCNT,HOP-92,−86.301 % control
same,Growth inhibition (% control) GIPRCNT,A498,100.8258 % control
same,Growth inhibition (% control) GIPRCNT,U251,8.466 % control
same,Growth inhibition (% control) GIPRCNT,A549/ATCC,97.64 % control
same,Growth inhibition (% control) GIPRCNT,SK-MEL-5,10.39 % control
same,Growth inhibition (% control) GIPRCNT,TK-10,100.0838 % control
same,Growth inhibition (% control) GIPRCNT,CCRF-CEM,−6.237 % control
same,Growth inhibition (% control) GIPRCNT,IGROV1,−83.5269 % control
same,Growth inhibition (% control) GIPRCNT,HT29,66.44 % control
same,Growth inhibition (% control) GIPRCNT,MDA-MB-468,−84.6413 % control
same,Growth inhibition (% control) GIPRCNT,SN12C,−88.5465 % control
same,Growth inhibition (% control) GIPRCNT,HCT-116,−64.939 % control
same,Growth inhibition (% control) GIPRCNT,PC-3,68.66 % control
same,Growth inhibition (% control) GIPRCNT,OVCAR-3,−100 % control
same,Growth inhibition (% control) GIPRCNT,EKVX,−81.7903 % control
same,Growth inhibition (% control) GIPRCNT,M14,73.83 % control
same,Growth inhibition (% control) GIPRCNT,NCI-H23,16.65 % control
same,Growth inhibition (% control) GIPRCNT,NCI-H460,97.22 % control
same,Growth inhibition (% control) GIPRCNT,MCF7,−61.9194 % control
same,Growth inhibition (% control) GIPRCNT,OVCAR-5,−7.548 % control
same,Growth inhibition (% control) GIPRCNT,COLO 205,82.4617 % control
same,Growth inhibition (% control) GIPRCNT,RPMI-8226,−32.551 % control
same,Growth inhibition (% control) GIPRCNT,HCC-2998,95.31 % control
same,Growth inhibition (% control) GIPRCNT,SW-620,−69.7878 % control
same,Growth inhibition (% control) GIPRCNT,NCI/ADR-RES,27.61 % control
same,Growth inhibition (% control) GIPRCNT,SF-268,77.72 % control
same,Growth inhibition (% control) GIPRCNT,SF-539,−24.5048 % control
same,Growth inhibition (% control) GIPRCNT,NCI-H322M,97.35 % control
same,Growth inhibition (% control) GIPRCNT,LOX IMVI,−95.4404 % control
same,Growth inhibition (% control) GIPRCNT,CAKI-1,−100 % control
same,Growth inhibition (% control) GIPRCNT,KM12,92.08 % control
same,Growth inhibition (% control) GIPRCNT,MDA-MB-231/ATCC,−62.773 % control
same,Growth inhibition (% control) GIPRCNT,K-562,−12.2778 % control
same,Growth inhibition (% control) GIPRCNT,UACC-62,−49.3593 % control
same,Growth inhibition (% control) GIPRCNT,HCT-15,70.44 % control
same,Growth inhibition (% control) GIPRCNT,HL-60(TB),−46.6759 % control
same,Growth inhibition (% control) GIPRCNT,MOLT-4,−25.588 % control
same,Growth inhibition (% control) GIPRCNT,UO-31,−97.3532 % control
same,Growth inhibition (% control) GIPRCNT,NCI-H226,105.4813 % control
same,Growth inhibition (% control) GIPRCNT,SK-OV-3,89.88 % control
same,Growth inhibition (% control) GIPRCNT,786-0,52.18 % control
same,Growth inhibition (% control) GIPRCNT,HOP-62,63.65 % control
same,Growth inhibition (% control) GIPRCNT,DU-145,−18.6864 % control
same,Growth inhibition (% control) GIPRCNT,T-47D,−61.1209 % control
same,Growth inhibition (% control) GIPRCNT,SNB-19,94.6 % control
same,Growth inhibition (% control) GIPRCNT,RXF 393,62.78 % control
same,Growth inhibition (% control) GIPRCNT,MDA-MB-435,−99.1118 % control
